Results published in US10150948B2, “Compositions and methods for producing and administering brown adipocytes” (The Regents of the University of California, priority 2013, dated 2018).

Legend:
WAT derived ADMSCs = assay: Neutral lipid staining of ADMSCs differentiated on adhesion peptide coated TCPS; assay type: cell-based, mouse; details: neutral lipid staining after differentiation on peptide coated TCPS
Experimental: Fat depots from L2G85 (FVB/NJ) or C57BL6/J mice, perigonadal (visceral) or inguinal (subcutaneous) respectively, were isolated post mortem from 3 month old mice. These fat depots were washed with sterile phosphate buffered saline (PBS) for 10 minutes. The tissues were then minced with scissors into fragments smaller than 1 mm and digested in 0.1% type II collagenase (Gibco) in DMEM with 5% bovine serum albumin (BSA) (Fisher) for 1 hr at room temperature (RT) on an orbital shaker. The digest was then filtered through sterile gauze and centrifuged at 400×RCF for 10 minutes. The cell pellet was then suspended in an erythrocyte lysis buffer 155 mM NH4Cl, 5.7 mM K2HPO4, 0.1 mM EDTA in ultrapure water for 10 m minutes. The resulting suspension was then centrifuged at 400×RCF for 10 minutes to pellet the ADMSCs. The resulting ADMSC pellet was suspended in DMEM with 10% fetal bovine serum (FBS) and 1% P/S and plated on TCPS. […]
FIGS. 1A-F: Effects of adhesion ligands ADMSC differentiation. […] C) Quantitative rtPCR analysis of UCP1 expression of WAT derived murine ADMSCs that were differentiated on indicated adhesion substrate coated TCPS (see Tab. […] D) Quantitative rtPCR analysis of UCP1 expression of WAT derived ADMSCs differentiated on mixtures of Ag73 and C16 (n=6). […] F) Quantitative rtPCR analysis of UCP1 expression of WAT derived ADMSCs differentiated on mixtures of Ag73 and Ag32 (n=6).

[1] = system: WAT derived murine ADMSCs; assay: UCP1 expression (quantitative rtPCR) of ADMSCs differentiated on adhesion peptide coated TCPS; assay type: cell-based, mouse; details: ADMSCs differentiated on single peptide coated TCPS; vs uncoated TCPS
Experimental: Fat depots from L2G85 (FVB/NJ) or C57BL6/J mice, perigonadal (visceral) or inguinal (subcutaneous) respectively, were isolated post mortem from 3 month old mice. These fat depots were washed with sterile phosphate buffered saline (PBS) for 10 minutes. The tissues were then minced with scissors into fragments smaller than 1 mm and digested in 0.1% type II collagenase (Gibco) in DMEM with 5% bovine serum albumin (BSA) (Fisher) for 1 hr at room temperature (RT) on an orbital shaker. The digest was then filtered through sterile gauze and centrifuged at 400×RCF for 10 minutes. […]
Purified peptides were suspended at 20 μM in ultrapure water with 1% P/S. In 24 well TC plates (BD Falcon, 353047), 20 μM peptide suspensions were added to each well. […] The adherent and non adherent cells were then counted with the CyQuant kit (Invitrogen).
Tissue samples suspended in RNALater ICE (Ambion) and stored at −20° C. mRNA was isolated from RNALater ICE stabilized tissues or directly from in vitro cultures of monolayers or cell laden hydrogels with Trizol reagent (Ambion). […] Established delta delta CT method was employed to comparatively assess mRNA quantity. […]
FIGS. 1A-F: Effects of adhesion ligands ADMSC differentiation. […] C) Quantitative rtPCR analysis of UCP1 expression of WAT derived murine ADMSCs that were differentiated on indicated adhesion substrate coated TCPS (see Tab. […]

Sequence: CGGKAFDITYVRLKF [C16, α5β1/3 integrin-engaging ligand, laminin γ1 chain peptide with N-terminal CGG]
- lipid accumulation (WAT derived ADMSCs): significantly greater lipid accumulation

Sequence: CGGRKRLQVQLSIRT [AG73, adhesion ligand for α6 integrins and syndecan-1, laminin a1 chain peptide with N-terminal CGG]
- UCP1 expression [1]: particularly efficient in driving UCP1 expression
